Patent US20090209525A1, “ENABLING METHODS TO IDENTIFY ALLOSTERIC MODULATORS OF RECEPTOR ACTIVITY” (priority 2006, published 2009)
Substitutions are numbered along the chain they refer to.

Columns and labels:
[1] = target: T1, rat M1 wild-type receptors (Rattus norvegicus, UniProt P08482); test: Phosphatidyl inositol hydrolysis assay, wild-type; type: cell-based; conditions: for Shift: EC50 divided by EC50 wild-type (reference)
T1 construct: expressed in transfected cells
T1 sequence (P08482 1-460): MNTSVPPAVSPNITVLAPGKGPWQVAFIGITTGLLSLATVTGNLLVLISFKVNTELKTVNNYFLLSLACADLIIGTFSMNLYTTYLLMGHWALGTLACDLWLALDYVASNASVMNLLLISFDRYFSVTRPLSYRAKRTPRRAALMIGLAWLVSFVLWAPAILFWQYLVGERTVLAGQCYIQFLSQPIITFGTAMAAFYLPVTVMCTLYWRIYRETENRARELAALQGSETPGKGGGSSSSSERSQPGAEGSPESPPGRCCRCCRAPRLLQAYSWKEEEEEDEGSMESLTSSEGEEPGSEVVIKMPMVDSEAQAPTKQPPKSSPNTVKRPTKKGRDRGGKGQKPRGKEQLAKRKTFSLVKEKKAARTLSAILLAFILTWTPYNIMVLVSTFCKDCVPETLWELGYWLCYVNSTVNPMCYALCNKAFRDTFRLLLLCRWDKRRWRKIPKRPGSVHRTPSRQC

rat M1 S109A receptor = target: T2, rat M1 S109A receptor (Rattus norvegicus, UniProt P08482, S109A); test: Phosphatidyl inositol hydrolysis assay, S109A; type: cell-based; conditions: Table 6; for Shift: EC50 S109A divided by EC50 wild-type; for EC50 / Eff (%): PI hydrolysis, S109A; for Eff (%): relative to wild-type response to that ligand
T2 construct: expressed in transfected cells
T2 sequence (P08482 1-460 S109A): T1 sequence (P08482 1-460) with S109A

rat M1 W101A receptor [2] = target: T3, rat M1 W101A receptor (Rattus norvegicus, UniProt P08482, W101A); test: Phosphatidyl inositol hydrolysis assay, W101A; type: cell-based; conditions: Table 6; for Shift: EC50 W101A divided by EC50 wild-type; for EC50 / Eff (%): PI hydrolysis, W101A; for Eff (%): relative to wild-type response to that ligand (clozapine: title says fold-response)
T3 construct: expressed in transfected cells
T3 sequence (P08482 1-460 W101A): T1 sequence (P08482 1-460) with W101A

rat M1 Y106A receptor = target: T4, rat M1 Y106A receptor (Rattus norvegicus, UniProt P08482, Y106A); test: Phosphatidyl inositol hydrolysis assay, Y106A; type: cell-based; conditions: Table 6; for Shift: EC50 Y106A divided by EC50 wild-type; for EC50 / Eff (%): PI hydrolysis, Y106A; for Eff (%): relative to wild-type response to that ligand (clozapine: title says fold-response)
T4 construct: expressed in transfected cells
T4 sequence (P08482 1-460 Y106A): T1 sequence (P08482 1-460) with Y106A

rat M1 W101A receptor [3] = target: T3, rat M1 W101A receptor; test: ^3H-NMS radioligand binding, W101A; conditions: for Shift: Ki W101A divided by Ki wild-type; for increase in binding affinity relative to wild-type: radioligand binding, W101A
Protocol: Briefly, cell homogenates are prepared from cells transiently or stably expressing wild type or mutant receptors. For transiently transfected cells, HEK cells are transfected with receptor of interest and cells harvested 48 hours post transfection. Cells expressing the receptor, stably or transiently, are harvested using phosphate buffered saline containing 5 mM EDTA, cells centrifuged at low speed and pellet re-suspended in binding buffer. Cell suspension is polytroned and centrifuged at 15,000×g. The pellet is resuspended in binding buffer and centrifugation repeated two more times. The washed cell homogenates are used for the competition binding assays. Competition binding assays are carried out in the presence of fixed amount of cell homogenate, fixed concentration of radioactively labeled orthosteric or allosteric ligand and varying concentrations of the cal under study using appropriate buffer. Incubations are carried out at room temperature for 2 hours. Incubations are terminated by filtration onto GF/B filters using Packard cell harvester followed by 3 washes with ice-cold buffer. Radioactivity retained on the filters is quantitated using Packard Top Count using Microscint 20 scintillation fluid. […] The membranes prepared above are incubated with a labeled ligand in 25 mM sodium phosphate, 5 mM magnesium chloride, 0.01% BSA two hours at room temperature. The binding reaction is stopped by rapid filtration onto GF/B filters. […] The pKd values (pKd=−log Kd) of the labeled ligand are calculated.
Radioligand binding assays were carried out in 25 mM sodium phosphate, 5 mM magnesium chloride, 0.01% BSA. Incubations were for two hours at room temperature, and reactions were stopped by rapid filtration onto GF/B filters.

[4] = Table 5, PI hydrolysis, maximum response relative to carbachol
[5] = Table 6, PI hydrolysis, M1 WT, maximum response, normalized

Eff (%) [1, 4]	EC50 ([1]; Table 5, PI hydrolysis, wild-type)	Shift ([1]; Table 6)	pEC50 ([1]; Table 6, PI hydrolysis, M1 WT)	Eff (%) [1, 5]	Shift (rat M1 S109A receptor)	EC50 (rat M1 S109A receptor)	Eff (%) (rat M1 S109A receptor)	Shift (rat M1 W101A receptor [2])	EC50 (rat M1 W101A receptor [2])	Eff (%) (rat M1 W101A receptor [2])	Shift (rat M1 Y106A receptor)	EC50 (rat M1 Y106A receptor)	Eff (%) (rat M1 Y106A receptor)	IC50 (rat M1 W101A receptor [3])	Shift (rat M1 W101A receptor [3])	EC50 ([1]; Table 6, PI hydrolysis, M1 WT)	Compound	increase in binding affinity relative to wild-type (rat M1 W101A receptor [3])
99 ± 20%	50.1 nM	1	7.3 ± 0.1	100 ± 7%	1	79.4 nM	85 ± 11%	0.03	1.58 nM	112 ± 6%	4	251 nM	110 ± 22%	3.16 nM	0.003		CCCCC1CCN(CCCN2C(=O)COc3cc(F)ccc32)CC1 [AC-260584, 4-[3-(4-Butyl-piperidin-1-yl)-propyl]-7-fluoro-4H-benzo [1,4]oxazin-3-one]	over 100 fold
44 ± 17%		1		55 ± 8%	4	200 nM	47 ± 17%	6	316 nM	54 ± 11%	3	200 nM	40 ± 4%	126 nM	1	100 nM	Clc1ccc2c(c1)N=C(N1CCNCC1)c1ccccc1N2 [NDMC, 8-chloro-11-(1-piperazinyl)-5H-dibenzo [b,e] [1,4] diazepine]	

Compound	Eff (%) [1, 4]	EC50 ([1]; Table 5, PI hydrolysis, wild-type)	Shift ([1]; Table 6)	pEC50 ([1]; Table 6, PI hydrolysis, M1 WT)	Eff (%) [1, 5]	Shift (rat M1 S109A receptor)	EC50 (rat M1 S109A receptor)	Eff (%) (rat M1 S109A receptor)	Shift (rat M1 W101A receptor [2])	EC50 (rat M1 W101A receptor [2])	Eff (%) (rat M1 W101A receptor [2])	Shift (rat M1 Y106A receptor)	EC50 (rat M1 Y106A receptor)	Eff (%) (rat M1 Y106A receptor)	IC50 (rat M1 W101A receptor [3])	Shift (rat M1 W101A receptor [3])	EC50 ([1]; Table 6, PI hydrolysis, M1 WT)	increase in binding affinity relative to wild-type (rat M1 W101A receptor [3])
CCCCC1CCN(CCCC(=O)c2ccccc2C)CC1 [AC-42, 4-n-butyl-1-[4-(2-methylphenyl)-4-oxo-1-butyl] piperidine hydrogen chloride]															50.1 nM	0.01		50 fold
